Assay results reported in patent US20220251124A1, “3,5-BIS(PHENYL)-1H-HETEROARYL DERIVATIVES AS MEDICAMENTS” (INSTITUTE OF BIOTECHNOLOGY CAS, V.V.I., priority 2019, published 2022).

Tests used:
Type in all cases: cell-based
MDA-MB-231 [1] = assay: annexin V/PI staining, cell death induction, 48 hrs
Method: (§1) This effect seems to be based mainly on the cytostatic effect of compound 1. To define the ability to kill cells, cell death-inducing potency (cytotoxic efficacy) of DFX and compound 1 have been tested via annexin V/PI staining commonly used as a measure of apoptotic/necrotic cell death. Briefly, cells were seeded in 12-well plate at 100,000 per well, incubated with the selected compounds for 48 hours, then floating cells were spun, adherent cells trypsinized and spun as well followed by the staining with AnnexinV-FITC and PI probes. Cells were then washed with PBS and measured via Fluorescence Activated Sorter.
(§2) Since compound 1 is an iron chelator, we have evaluated the effect of pre-loading compound 1 with iron at a 2:1 ratio and then applying it to the cells, followed by measurement of cell death using the Annexin V/PI staining as in example 4.

MCF7 [2] = assay: as above
Method: as §1, §2

MDA-MB-231 cells = assay: crystal violet assay, cellular viability, 48 hrs; conditions: Homo sapiens, MDA-MB-231, 48 h, MDA-MB-231, crystal violet, read-out: IC50
Method: (§3) Compound 1 and a comparative compound deferasirox (DFX) were tested in their efficacy to kill/suppress proliferation of malignant breast cancer MCF7 cells representing estrogen-dependent type of breast cancer. Briefly, 10.000 cells per well were seeded in a 96-well plate on one day and the next day the tested compounds were added and incubated with the cells for 48 hrs. The cells were then fixed with 4% paraformaldehyde, stained with 0.05% crystal violet, washed with PBS, and solubilized in 1% SDS. The absorbance of the plate at 595 nm was then measured, quantifying the number of viable cells.
Compound 1 and the comparative compound deferasirox were tested in their efficacy to kill/suppress proliferation of malignant MDA-MB-231 cancer cells representing hard to treat triple negative breast cancer. The procedure is identical to that in example 12.

cancer cell lines = assay: crystal violet assay, cancer cell lines overall; conditions: cancer cells, crystal violet
Method: as §3

MCF7 cells = assay: crystal violet assay, cellular viability (cytostatic and cytotoxic effect), 48 hrs; conditions: Homo sapiens, MCF7, 48 h, MCF7 (parental/control), crystal violet, read-out: IC50
Method: as §3

[3] = system: MCF7 mammospheres (cancer stem-like cells); assay: formation and growth of mammospheres, Cell Titer Glo 3D; conditions: 1 μM, 140 hrs
Method: To test the effect of compound 1 on the viability and proliferation of other resistant cancer cell types, we utilized a model of cancer stem-like cells that can be cultivated in vitro, so-called “mammospheres”. […] In this assay MCF7 spheres were dissociated to single cells/small spheres, seeded 10,000 cells per well on a special cell culture plastic that is non adherent in the Mammocult medium (Stem cell technologies) and compound 1 and compound 2 at 1 μM were added. This represents the non-cytotoxic concentration. Cells were left to grow and generate spheres for 140 hrs. The amount of cells was then measured by the Cell TiterGlo 3D reagent (Promega) that determines cell counts of 3D cultured cells as a function of their ATP content that is determined by a chemiluminescent assay.

MDA-MB-231 [4] = assay: cell cycle distribution, Vybrant DyeCycle Violet, flow cytometry; conditions: 1 μM
Method: (§4) In order to define the effect on cellular level, we investigated the effect of compound 1 and 2 at non-cytotoxic concentrations of the drugs (1 μM) on cell cycle. Cells were cultivated with the compounds for 24 and 48 hrs and then stained with Vybrant DyeCycle VioletReady Flow reagent (ThermoFisher Scientific) that binds to DNA and analyzed by Flow cytometry and Kaluza program to define the proportions of G1,S and G2/M phases of cell cycle. It is evident that both compounds lead to accumulation of cells in G1 phase if the cell cycle, which become more prominent at later time points (see Table 12, 13).

MCF7 [5] = assay: as above; conditions: 1 μM
Method: as §4

MDA-MB-231 [6] = assay: cellular ROS, DCF-DA probe, flow cytometry; conditions: 5 μM
Method: (§5) The effect of compound 1 on generation of cellular reactive oxygen species (ROS) was evaluated in MCF7 and MDA-MB-231 cells using a cell permeable ROS probe 2′,7′-dichlorodihydrofluorescein diacetate (DCF-DA; Sigma-Aldrich) that measures several reactive species and becomes fluorescent upon oxidation. Cells treated with compound 1 or compound 2 (5 μM) for the described time interval were stained with the probe and then analyzed via Flow cytometry.

MCF7 [7] = assay: cellular ROS, DCF-DA probe, flow cytometry; conditions: 5 μM
Method: as §5

## Oc1ccccc1-c1nc(-c2ccccc2O)n(CCCCCCCCCC[P+](c2ccccc2)(c2ccccc2)c2ccccc2)n1 [Compound 2, (10-(3,5-bis(2-hydroxyphenyl)-1H-1,2,4-triazol-1-yl)decyl)triphenylphosphonium Bromide]
MDA-MB-231 [1]; 1 μM
  dead cells (AnnexinV/PI): 26.7 (5.8) %
MDA-MB-231 [1]; 2 μM
  dead cells (AnnexinV/PI): 38.5 (7.3) %
MDA-MB-231 [1]; 5 μM
  dead cells (AnnexinV/PI): 87.8 (4.2) %
MCF7 [2]; 1 μM
  dead cells (AnnexinV/PI): 44.2 (0.3) %
MCF7 [2]; 2 μM
  dead cells (AnnexinV/PI): 41.2 (0.4) %
MCF7 [2]; 5 μM
  dead cells (AnnexinV/PI): 60.8 (18.6) %
MDA-MB-231 cells
  IC50: 464 nM
Cancer cell lines
  IC50: ~100 nM
MCF7 cells
  IC50: 175 nM
[3]
  chemiluminescence ATP values normalized to control sample set as 100: 2.82 (0.28)
MDA-MB-231 [4]; 24 hrs
  proportion of cells in G1: 64.0 (7.7)
  proportion of cells in G2: 28.8 (8.0)
  proportion of cells in S: 7.3
MDA-MB-231 [4]; 48 hrs
  proportion of cells in G1: 74.1 (3.7)
  proportion of cells in G2: 18.5 (5.1)
  proportion of cells in S: 7.4
MCF7 [5]; 24 hrs
  proportion of cells in G1: 74.0 (1.3)
  proportion of cells in G2: 20.3
  proportion of cells in S: 5.7
MCF7 [5]; 48 hrs
  proportion of cells in G1: 77.5 (2.2)
  proportion of cells in G2: 11.7 (3.8)
  proportion of cells in S: 10.8 (4.8)
MDA-MB-231 [6]; 5 min, MDA-MB-231 (0 min = 100)
  DCF-DA mean fluorescence: 255.9 (66.3)
MDA-MB-231 [6]; 10 min, MDA-MB-231
  DCF-DA mean fluorescence: 343.5 (78.9)
MDA-MB-231 [6]; 15 min, MDA-MB-231
  DCF-DA mean fluorescence: 555.6 (122.4)
MDA-MB-231 [6]; 30 min, MDA-MB-231
  DCF-DA mean fluorescence: 473.4 (136.1)
MDA-MB-231 [6]; 60 min, MDA-MB-231
  DCF-DA mean fluorescence: 332.0 (158.7)
MCF7 [7]; 5 min, MCF7 (0 min = 100)
  DCF-DA mean fluorescence: 316.5 (96.0)
MCF7 [7]; 10 min, MCF7
  DCF-DA mean fluorescence: 558.3 (186.5)
MCF7 [7]; 15 min, MCF7
  DCF-DA mean fluorescence: 821.5 (73.8)
MCF7 [7]; 30 min, MCF7
  DCF-DA mean fluorescence: 1201.0 (444.0)
MCF7 [7]; 60 min, MCF7
  DCF-DA mean fluorescence: 1029.0 (407.7)
